Laboratory results as given in ChEMBL document CHEMBL4699612, “Discovery of thiosemicarbazone-containing compounds with potent anti-proliferation activity against drug-resistant K562/A02 cells” (Bioorg Med Chem Lett, 2020).

What was measured:
[1] = Resistance index, ratio of IC50 for human K562/A02 cells to IC50 for human K562 cells; format: functional; parameters: reference not given here
K562 = test: Antiproliferative activity against human K562 cells by MTT assay; format: functional, cell-based
K562/A02 = test: Antiproliferative activity against human K562/A02 cells overexpressing P-gp by MTT assay; format: functional, cell-based
Histone deacetylase 1 = Histone deacetylase 1 (Homo sapiens, UniProt Q13547); test: Inhibition of recombinant human HDAC1 using Boc-Lys(Ac)-AMC as substrate incubated for 60 mins by fluorimetric assay
Chain of Histone deacetylase 1 (Q13547 whole entry): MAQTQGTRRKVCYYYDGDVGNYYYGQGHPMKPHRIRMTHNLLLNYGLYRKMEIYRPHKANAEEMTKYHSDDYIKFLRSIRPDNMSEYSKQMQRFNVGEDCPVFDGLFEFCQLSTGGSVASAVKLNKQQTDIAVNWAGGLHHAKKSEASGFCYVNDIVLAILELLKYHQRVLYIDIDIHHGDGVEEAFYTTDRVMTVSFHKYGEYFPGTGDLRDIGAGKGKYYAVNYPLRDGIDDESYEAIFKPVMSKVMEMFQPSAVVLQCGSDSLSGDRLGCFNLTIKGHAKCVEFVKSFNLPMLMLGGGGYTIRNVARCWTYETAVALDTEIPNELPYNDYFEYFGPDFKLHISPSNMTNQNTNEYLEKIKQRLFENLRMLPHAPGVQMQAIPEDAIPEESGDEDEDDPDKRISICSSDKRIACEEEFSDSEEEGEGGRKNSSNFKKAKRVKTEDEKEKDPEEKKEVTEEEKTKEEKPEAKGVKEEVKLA

[2] = target: T1, Protein deacetylase HDAC6 (Homo sapiens, UniProt Q9UBN7); test: Inhibition of recombinant human HDAC6 using Boc-Lys(Ac)-AMC as substrate incubated for 60 mins by fluorimetric assay
T1 sequence (Q9UBN7 whole entry): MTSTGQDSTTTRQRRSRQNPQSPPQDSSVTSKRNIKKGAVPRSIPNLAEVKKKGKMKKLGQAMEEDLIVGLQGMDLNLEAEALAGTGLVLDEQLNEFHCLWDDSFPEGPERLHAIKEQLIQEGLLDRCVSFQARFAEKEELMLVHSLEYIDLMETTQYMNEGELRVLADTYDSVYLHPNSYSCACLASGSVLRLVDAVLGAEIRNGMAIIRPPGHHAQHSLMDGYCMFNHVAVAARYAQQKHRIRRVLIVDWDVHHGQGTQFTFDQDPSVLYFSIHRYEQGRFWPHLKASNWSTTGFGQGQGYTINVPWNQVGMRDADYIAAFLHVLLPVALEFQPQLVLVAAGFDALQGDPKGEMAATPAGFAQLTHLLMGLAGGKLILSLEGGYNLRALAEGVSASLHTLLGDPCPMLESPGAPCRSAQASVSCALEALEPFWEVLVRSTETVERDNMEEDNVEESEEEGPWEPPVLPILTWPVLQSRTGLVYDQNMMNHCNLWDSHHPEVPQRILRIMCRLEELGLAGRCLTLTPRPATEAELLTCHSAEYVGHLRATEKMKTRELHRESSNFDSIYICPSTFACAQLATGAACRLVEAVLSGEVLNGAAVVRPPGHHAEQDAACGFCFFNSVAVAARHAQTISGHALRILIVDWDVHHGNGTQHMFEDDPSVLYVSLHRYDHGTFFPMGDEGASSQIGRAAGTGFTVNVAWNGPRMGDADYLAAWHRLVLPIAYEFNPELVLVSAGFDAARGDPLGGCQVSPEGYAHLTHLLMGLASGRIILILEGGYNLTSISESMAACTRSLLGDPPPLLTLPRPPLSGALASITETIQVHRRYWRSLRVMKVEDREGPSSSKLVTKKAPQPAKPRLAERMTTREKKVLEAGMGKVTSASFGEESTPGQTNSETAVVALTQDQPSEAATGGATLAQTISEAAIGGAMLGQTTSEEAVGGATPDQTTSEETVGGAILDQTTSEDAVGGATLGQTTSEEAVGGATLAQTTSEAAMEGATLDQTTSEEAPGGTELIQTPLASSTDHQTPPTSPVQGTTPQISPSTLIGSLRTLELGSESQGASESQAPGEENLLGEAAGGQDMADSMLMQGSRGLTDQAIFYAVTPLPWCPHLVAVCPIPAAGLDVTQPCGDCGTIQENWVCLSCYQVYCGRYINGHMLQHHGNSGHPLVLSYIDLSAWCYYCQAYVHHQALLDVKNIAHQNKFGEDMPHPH

Histone deacetylase 8 = target: T2, Histone deacetylase 8 (Homo sapiens, UniProt Q9BY41); test: Inhibition of recombinant human HDAC8 using Boc-Lys(Ac)-AMC as substrate incubated for 60 mins by fluorimetric assay
T2 sequence (Q9BY41 whole entry): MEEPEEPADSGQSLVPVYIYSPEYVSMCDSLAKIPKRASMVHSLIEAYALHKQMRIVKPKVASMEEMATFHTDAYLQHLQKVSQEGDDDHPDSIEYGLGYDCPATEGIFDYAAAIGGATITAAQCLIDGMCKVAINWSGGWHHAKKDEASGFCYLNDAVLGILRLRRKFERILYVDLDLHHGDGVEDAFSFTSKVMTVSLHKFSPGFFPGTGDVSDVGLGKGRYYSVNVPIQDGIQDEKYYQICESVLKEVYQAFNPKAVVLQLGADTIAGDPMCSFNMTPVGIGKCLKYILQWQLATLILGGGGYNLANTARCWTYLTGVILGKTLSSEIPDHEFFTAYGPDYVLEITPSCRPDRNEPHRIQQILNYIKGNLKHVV

For `COc1ccccc1/C(=N/NC(=S)NCCCCCC(=O)NO)c1ccccc1`, the “Ratio IC50” value [1] was 0.82, the IC50 (K562) was 3.56 µM and the IC50 (K562/A02) was 2.91 µM.
With `C/C(=N\NC(=S)NCCCCCC(=O)NO)c1cccc(C)c1` the “Ratio IC50” value [1] was 0.93, the IC50 (K562) was 3.84 µM and the IC50 (K562/A02) was 3.57 µM.
`O=C(CCCCCCC(=O)Nc1ccccc1)NO` [VORINOSTAT] showed an IC50 (K562/A02) of 3.13 µM.
For `C/C(=N\NC(=S)NCCCC(=O)NO)c1ccc([N+](=O)[O-])cc1`, the IC50 (K562) was over 10 µM and the IC50 (K562/A02) was over 10 µM.
With `O=C(CCCCCNC(=S)N/N=C(\c1ccccc1)c1ccccc1[N+](=O)[O-])NO` the “Ratio IC50” value [1] was 0.56, the IC50 (K562) was 2.33 µM and the IC50 (K562/A02) was 1.31 µM.
With `CN(C)C(=S)NN=C(c1ccccn1)c1ccccn1` the IC50 (Histone deacetylase 1) was over 5 µM, the “Ratio IC50” value [1] was 0.88 and the IC50 [2] was over 5 µM. The IC50 (K562) was 3.43 µM, the IC50 (Histone deacetylase 8) was over 5 µM and the IC50 (K562/A02) was 3.02 µM.
For `O=C(CCCCCNC(=S)N/N=C(\c1ccccc1)c1ccccn1)NO`, the “Ratio IC50” value [1] was 0.95, the IC50 (K562) was 2.14 µM and the IC50 (K562/A02) was 2.03 µM.
In the case of `Cc1ccccc1/C(=N/NC(=S)NCCCCCC(=O)NO)c1ccccc1`, the “Ratio IC50” value [1] is reported as 1.2, the IC50 (K562) is reported as 3.51 µM and the IC50 (K562/A02) is reported as 4.22 µM.
With `O=C(CCCCCNC(=S)N/N=C(\c1ccccc1)c1ccc([N+](=O)[O-])cc1)NO` the “Ratio IC50” value [1] was 1.57, the IC50 (K562) was 2.89 µM and the IC50 (K562/A02) was 4.53 µM.
For `C/C(=N\NC(=S)NCCCCCC(=O)NO)c1ccc(F)cc1`, the IC50 (Histone deacetylase 1) was 0.0693 µM, the “Ratio IC50” value [1] was 0.54 and the IC50 [2] was 0.0629 µM. For the same compound, the IC50 (K562) was 1.89 µM, the IC50 (Histone deacetylase 8) was over 5 µM and the IC50 (K562/A02) was 1.02 µM.
In the case of `C/C(=N\NC(=S)NCCCCCC(=O)NO)c1cccc(C(F)(F)F)c1`, the “Ratio IC50” value [1] is reported as 0.64, the IC50 (K562) is reported as 1.4 µM and the IC50 (K562/A02) is reported as 0.89 µM.
